Source: article PMC11921344, “Antimicrobial peptide DiPGLa-H exhibits the most outstanding anti-infective activity among the PGLa variants based on a systematic comparison” (Applied and Environmental Microbiology, 2025)
Like-named read-outs stand apart in the source and are kept apart here. Where no end group is shown, it is not given here.

How the values were obtained:
[1] = tested on: E. coli K88; assay: ROS generation (DCFH-DA); assay type: cell-based, Escherichia coli; conditions: 8 µM DiPGLa-H, 1 h 37°C, DCFH-DA 10 µM
Protocol: 2′,7′-Dichlorofluorescin diacetate (DCFH-DA) was used to determine the intracellular production of ROS as previously described. S. aureus Mu50 and E. coli K88 cells were diluted until OD600 = 0.4 and incubated in different concentrations of peptide at 37°C for 1 h. Next, the mixed solution was incubated with 10 µM DCFH-DA at 37°C for 1 h. The fluorescence (excitation wavelength = 488 nm, emission wavelength = 525 nm) was monitored with an Infinite 200 pro fluorescence spectrophotometer (Tecan, China). Each test was measured in triplicate and tested twice.

[2] = tested on: S. aureus ATCC29213; assay type: cell-based, Staphylococcus aureus
Protocol: (§1) The antibacterial activity was evaluated using a standard MIC and MBC assay according to the National Committee for Clinical Laboratory Standards (NCCLS). MIC, MBC assay, and time-kill curves for the optimal peptide are provided in the Supplementary Materials.
Antimicrobial Activity Assays. The antibacterial activity of the peptides was determined using a method designed from the National Committee for Clinical Laboratory Standards (NCCLS) in the United States. All the strains used in the experiment are preserved in the laboratory. Briefly, log phase bacterial cells were diluted in MHB to a final concentration of 0.5-1x10^5 CFU/mL. Subsequently, 50μL of different concentrations of polypeptides were incubated with 50 μL of bacterial solution in sterile 96-well plates. In the minimum inhibitory concentration (MIC) assay, the plate was incubated at 37°C for 24 h, and the minimum inhibitory concentration (MIC) was determined by the absorbance at 492 nm of the microplate reader, and the minimum inhibitory concentration (MIC) inhibited 95% of bacteria grow. Determination of minimum bactericidal concentration: the plate was incubated at 37°C for 4 hours, 50 μL of the mixture was taken out of each well, diluted with an appropriate amount of PBS, smeared on the agar plate, and cultured overnight. Colonies were counted and the initial CFU/well was retrospectively calculated the following day. The lowest concentration of peptide that kills 99.9% of bacterial cells is the minimum bactericidal concentration (µM), Each test was replicated at least 3 times.

[3] = tested on: S. aureus Mu50; assay type: cell-based, Staphylococcus aureus MRSA; conditions: for MIC S. aureus Mu50: Mu50, 2 h
Protocol: To assess the stability of the peptides in physiological conditions, the peptides were incubated with E. coli K88 and S. aureus Mu50 in the presence of salts (150 mM NaCl, 4.5 mM KCl, 6 µM NH4Cl, 8 µM ZnCl2, 1 mM MgCl2, 4 µM FeCl3, and 2.5 µM CaCl2) in accordance with a previously reported protocol. To determine the thermal stability of the peptides, the peptides were pretreated at 100°C for 30 min, 60 min, and 90 min and cooled on ice for 10 min. The effect of acid and base on the antimicrobial activity was measured by treating the peptides for 2 h at pH of 2, 4, 10, and 12 in 10 mM sodium phosphate buffer adjusted with HCl or NaOH.

[4] = tested on: E. coli K88 infection; assay: Mouse abdominal infection model; assay type: in vivo, C57BL/6 mice; conditions: for number of mice that survived: K88+DiPGLa-H
Protocol: (§2) Six-to-eight-week-old C57BL/6 male mice were selected for the experiment and housed in cages under specific pathogen-free conditions with water and laboratory mouse chow. Each strain was divided into three groups, and each group and the second group were required to be injected intraperitoneally with a lethal amount of bacterial fluid with a working fluid concentration of 64 µg/mL of DiPGLa-H, and the third group was injected with PBS. […] Then homogenized and serially diluted with PBS to 10^7 times. 100 µL of the gradient dilution was applied to the TSA plate, which was subsequently incubated at 37°C overnight and counted the next day for survival analysis using GraphPad Prism software. The protocol and use of animals were approved by the Institutional Animal Care and Use Committee of the Northwest A&F University.

[5] = tested on: S. aureus Mu50 infection; assay: Mouse abdominal infection model; assay type: in vivo, C57BL/6 mice; conditions: for number of mice that survived: Mu50+DiPGLa-H
Protocol: as §2

[6] = tested on: S. aureus Mu50; assay: Time-kill (bactericidal) curve; assay type: cell-based, Staphylococcus aureus MRSA; conditions: four times MIC, TSB, 37°C
Protocol: as §1
The bactericidal curve of the optimal peptide was further determined. […] Each test was replicated at least 3 times.

[7] = tested on: E. coli K88 outer membrane; assay: Outer membrane integrity assay (NPN uptake); assay type: cell-based, Escherichia coli
Protocol: The outer and inner membrane integrity of bacterial cells treated with peptides was assessed using NPN and PI staining, respectively. Full details are provided in the Supplementary Materials.
Membrane permeabilization. Outer membrane integrity assay. The fluorescent probe NPN (Sigma-Aldrich, catalog no. 104043, ≥98%) was used to assess the outer membrane integrity of DiPGLa-H or mucin-treated E. coli K88. Briefly, log-medium E. coli K88 cells (OD600 = 0.2) were incubated with NPN (10 μM) in 5 mM HEPES buffer (pH 7.4, containing 5 mM glucose) for 30 min, and background fluorescence was recorded for subtraction. (excitation λ = 350 nm, emission λ = 420 nm) using a microplate reader (Varioskan Flash; Thermo, America). Subsequently, 100 μL of cell suspension was mixed with an equal volume of peptide solutions ranging in concentration from 4 to 64 μM in a sterile 96-well black plate. Fluorescence was recorded over time until no further increase in fluorescence was detected. Each test was performed independently, in duplicate, with three biological replicates, and results were converted to percent NPN uptake using the equation. NPN uptake (%) = (Fobs – Fbuffer)/ (Fpositive – Fbuffer) ×100%.
where Fobs is the observed fluorescence at a given peptide concentration, Fbuffer is the fluorescence of the buffer, and Fpositive is the fluorescence of NPN with microbial cells upon addition of 10 μg/mL polymyxin B (Sigma), which was used as a positive control because of its strong outer membrane-permeabilizing property. Untreated cell suspension served as the negative control.

[8] = heart, liver, spleen, 1 day after infection, 5 mice per group

## KIAKVALKALKIAKVALKAL-NH2 (C-terminus assumed) [DiPGLa-H]
[1]
  elevation of ROS production vs untreated: 11.3 fold
[2]; ATCC29213, 4 h
  MBC S. aureus ATCC29213: 4 µM
[2]; ATCC29213, 24 h
  MIC S. aureus ATCC29213: 4 µM
[3]; pH 2
  MIC S. aureus Mu50: >32 µM
[3]; pH 4
  MIC S. aureus Mu50: >32 µM
[3]; pH 10
  MIC S. aureus Mu50: 32 µM
[3]; pH 12
  MIC S. aureus Mu50: 32 µM
[3]; heat 100°C and pH 2-12 treatments
  increase in MIC after high temperature and pH treatments, S. aureus Mu50: ≥ 4 fold
[3]; salts of Table S2
  increase in MIC values by cations, S. aureus Mu50: more than fourfold increase
[4]; day 1, of 16 mice
  number of mice that survived: 13
[4]; day 2, of 16 mice
  number of mice that survived: 12
[4]; day 3, of 16 mice
  number of mice that survived: 10
[4]; day 4, of 16 mice
  number of mice that survived: 9
[4]; day 5, of 16 mice
  number of mice that survived: 9
[4]; day 6, of 16 mice
  number of mice that survived: 9
[4]; day 7, of 16 mice
  number of mice that survived: 9
[4]; day 8, of 16 mice
  number of mice that survived: 9
[4]; [8]
  reduction of bacterial loads in the organs: 1,000 fold
[5]; C57BL/6 male mice, intraperitoneal lethal Mu50, DiPGLa-H working concentration 64 µg/mL, 16 mice per group
  increase of survival rate of mice: 31%
[5]; day 1, of 16 mice
  number of mice that survived: 12
[5]; day 2, of 16 mice
  number of mice that survived: 11
[5]; day 3, of 16 mice
  number of mice that survived: 10
[5]; day 4, of 16 mice
  number of mice that survived: 8
[5]; day 5, of 16 mice
  number of mice that survived: 6
[5]; day 6, of 16 mice
  number of mice that survived: 6
[5]; day 7, of 16 mice
  number of mice that survived: 5
[5]; day 8, of 16 mice
  number of mice that survived: 5
[5]; [8]
  reduction of bacterial loads in the organs: 100 fold
[6]
  time to complete eradication of S. aureus Mu50: 6 h
[7]; 64 µM peptide, relative to 10 µg/mL polymyxin B = 100%
  outer membrane permeability (NPN uptake): 184.4%
[7]; 1× MIC
  membrane permeability: approximately 80%
